Source: patent publication US7598344B2, “Composition, method and use of bi-functional biomaterials” (Board of Regents, The University of Texas System, priority 2002, dated 2009)
Ends that are not written are not given here.

Tests used:
[1] = serum-containing media, pH 7.4, 15% serum; 3 hr, 7 days, 3 weeks
Procedure: Binding was studied using biotinylated T59 peptide and streptavidin-FITC labeling. (a) control substrate in which no T59 peptide was added, 0.5×0.5 cm2 PPyCl substrates (b) and (c) were incubated with 15 μM peptide, the samples were then placed in serum-containing media (pH 7.4 and 15% serum) for 3 hr (b), 7 days (c), and 3 weeks (d). Bar, 10 μm.
In addition, T59 peptide binding stability in serum-containing medium was also evaluated in working examples using immunofluorescence (note that all previous experiments were done in saline buffer).

[2] = Biotinylated T59 peptide binding, streptavidin-FITC labeling, on polystyrene; conditions: 15 μM peptide, 0.5×0.5 cm^2 substrate
Procedure: (§1) (b) 15 μM peptide bound to 0.5×0.5 cm^2 PPyCl substrate. (c) 15 μM peptide bound to 0.5×0.5 cm^2 PPyPSS substrate. (d) 15 μM peptide bound to 0.5×0.5 cm^2 polystyrene (PS) substrate. All samples were incubated with equal concentrations of streptavidin-FITC. Bar, 10 μm.
(§2) Additional working example data were obtained for the polypyrrole system. A peptide was synthesized whose sequence was determined from the T59 phage (ie., SEQ ID NO. 1).

[3] = Biotinylated T59 peptide binding, streptavidin-FITC labeling, on PPyCl; conditions: 15 μM peptide, 0.5×0.5 cm^2 substrate
Procedure: as §1, §2

In the case of “THRTSTLDYFVI (also: biotinylated, position not given here) [T59 peptide]”, the “binding stability of PPyCl-bound peptide” value [1] is reported as “a significant fraction of T59 peptides remained bound to PPyCl even after 3 weeks”, the “peptide binding to polystyrene (PS)” value [2] is reported as “not to PPyPSS or to polystyrene (PS)” and the “peptide binding to PPyCl” value [3] is reported as “binds to PPyCl”.
